The target in experiment [1] is 293 cells cotransfected with αv and β3 subunits of the vitronectin receptor αvβ3 (Homo sapiens, UniProt P05106+P06756). Description: Vitronectin/293 cell test (inhibition of binding of 293 cells to human vitronectin). Format: cell-based. Conditions: inhibition of binding of αvβ3-expressing 293 cells to human vitronectin; read-out: Vn/293 cell test IC50. As for the experimental part:
2) Vitronectin/293 Cell Test
In this test the inhibition of binding of 293 cells to human vitronectin (Vn) by the compounds of the invention is determined (the test method is abbreviated as Vn/293 cell test in the listing of the test results).
Purification of Human Vitronectin
Human vitronectin was isolated from human plasma and purified by affinity chromatography according to the method of Yatohgo et al., Cell Structure and Function 23 (1988) 281.
293 cells, a human embryonic kidney cell line, which were cotransfected with DNA sequences for the αv and β3 subunits of the vitronectin receptor αvβ3, were selected for a high rate of expression (>500,000 αvβ3 receptors/cell) according to the FACS method. The selected cells were cultured and sorted again by means of FACS in order to obtain a stable cell line (15 D) with expression rates >1,000,000 copies of αvβ3 per cell.
A Linbro 96-well tissue culture plate with a flat bottom was coated overnight at 4° C. with human vitronectin (0.01 mg/ml, 0.05 ml/well) in phosphate-buffered saline solution (PBS) and then blocked with 0.5% strength BSA (bovine serum albumin). Solutions of the test substances from 10^−10 mol/l to 2×10^−3 mol/l in glucose-containing DMEM medium were prepared and 0.05 ml/well of the solution were added to the plate in each case. The cells which expressed high levels of αvβ3 (for example 15 D) were suspended in glucose-containing DMEM medium and the suspension was adjusted to a content of 25,000 cells/0.05 ml of medium. 0.05 ml of this cell suspension was added to each well and the plate was incubated at 37° C. for 90 min. The plate was washed 3 times with warm PBS in order to remove unbound cells. The bound cells were lyzed in citrate buffer (25 mM, pH 5.0) which contained 0.25% Triton X-100. The hexoseamidase substrate p-nitrophenyl-N-acetyl-β-D-glucosaminide was then added and the plate was incubated at 37° C. for 90 min. The reaction was stopped with a glycine (50 mM)/EDTA (5 mM) buffer (pH 10.4) and the absorption of each well was measured at 405 to 650 nm. The data were analyzed according to standard methods.

Experiment [2] deals with T1, human vitronectin receptor αvβ3 (Homo sapiens, UniProt P05106+P06756).
T1 construct: Human vitronectin receptor is obtained from the human placenta according to the method of Pytela et al; from tissue; host or cells: human placenta (alternative: 293 cells co-transfected with αv and β3 DNA)
Description: Kistrin binding assay (αvβ3 ELISA test, K/VnR). Conditions: inhibition of binding of kistrin to human vitronectin receptor αvβ3, ELISA. The source says: The inhibition of the binding of kistrin to human vitronectin receptor (VnR) described below is a test method by which the antagonistic action of the compounds of the invention on the vitronectin receptor αvβ3 can be determined (αvβ3 ELISA Test; the test method is abbreviated as “K/VnR” in the listing of the test results).
Kistrin is purified according to the methods of Dennis et al., as described in Proc. Natl. Acad. Sci. USA 87 (1989) 2471 and Proteins: Structure, Function and Genetics 15 (1993) 312.
Purification of Human Vitronectin Receptor (αvβ3)
Human vitronectin receptor is obtained from the human placenta according to the method of Pytela et al., Methods Enzymol. 144 (1987) 475. Human vitronectin receptor αvβ3 can also be obtained from some cell lines (for example from 293 cells, a human embryonic kidney cell line) which are co-transfected with DNA sequences for both subunits αv and β3 of the vitronectin receptor. The subunits are extracted with octyl glycoside and then chromatographed through concanavalin A, heparin-Sepharose and S-300.
Murine monoclonal antibodies which are specific for the β3 subunits of the vitronectin receptor, are prepared according to the method of Newman et al., Blood, 1985, 227, or by a similar process. The rabbit Fab 2 anti-mouse Fc conjugate to horseradish peroxidase (anti-mouse Fc HRP) was obtained from Pel Freeze (Catalog No. 715 305-1).
The ability of substances to inhibit the binding of kistrin to the vitronectin receptor can be determined using an ELISA test. For this purpose, Nunc 96-well microtiter plates are coated with a solution of kistrin (0.002 mg/ml) according to the method of Dennis et al., as described in Proteins: Structure, Function and Genetics 15 (1993) 312. The plates are then washed twice with PBS/0.05% Tween-20 and blocked by incubating (60 min) with bovine serum albumin (BSA, 0.5%, RIA grade or better) in buffer solution (Tris-HCl (50 mM), NaCl (100 mM), MgCl2 (1 mM), CaCl2 (1 mM), MnCl2 (1 mM), pH 7). Solutions of known inhibitors and of the test substances are prepared in concentrations from 2×10^−12 to 2×10^−6 mol/l in assay buffer (BSA (0.5%, RIA grade or better); Tris-HCl (50 mM); NaCl (100 mM), MgCl2 (1 mM), CaCl2 (1 mM), MnCl2 (1 mM), pH 7). The blocked plates are emptied, and in each case 0.025 ml of this solution which contains a defined concentration (2×10^−12 to 2×10^−6 mol/l) either of a known inhibitor or of a test substance, are added to each well. 0.025 ml of a solution of the vitronectin receptor in assay buffer (0.03 mg/ml) is pipetted into each well of the plate and the plate is incubated at room temperature for 60-180 min on a shaker. In the meantime, a solution (6 ml/plate) of a murine monoclonal antibody specific for the β3 subunit of the vitronectin receptor is prepared in assay buffer (0.0015 mg/ml). A second rabbit antibody (0.001 ml of stock solution/6 ml of the murine monoclonal anti-β3 antibody solution) which is an anti-mouse Fc HRP antibody conjugate is added to this solution, and this mixture of murine anti-β3 antibody and rabbit anti-mouse Fc HRP antibody conjugate is incubated during the time of the receptor-inhibitor incubation. The test plates are washed four times with PBS solution which contains 0.05% Tween-20, and in each case 0.05 ml/well of the antibody mixture is pipetted into each well of the plate and incubated for 60-180 min. The plate is washed four times with PBS/0.05% Tween-20 and then developed with 0.05 ml/well of a PBS solution which contains 0.67 mg/ml of o-phenylenediamine and 0.012% of H2O2 . Alternatively to this, o-phenylenediamine can be employed in a buffer (pH 5) which contains Na3PO4 and citric acid. The color development is stopped using 1 N H2SO4 (0.05 ml/well). The absorption for each well is measured at 492-405 nm and the data are evaluated by standard methods.

The subject of experiment [3] is bone resorption by osteoclasts. The experiment in a line: Pit Assay (osteoclast resorption test). Conditions: inhibition of bone resorption. Format: cell-based. From the text:
The inhibition of bone resorption by the compounds of the invention can be determined, for example, with the aid of an osteoclast resorption test (“Pit Assay”), for example analogously to WO-A-95/32710 which is incorporated herein by reference.

Sequence of 293 cells cotransfected with αv and β3 subunits of the vitronectin receptor αvβ3 (P05106 whole entry): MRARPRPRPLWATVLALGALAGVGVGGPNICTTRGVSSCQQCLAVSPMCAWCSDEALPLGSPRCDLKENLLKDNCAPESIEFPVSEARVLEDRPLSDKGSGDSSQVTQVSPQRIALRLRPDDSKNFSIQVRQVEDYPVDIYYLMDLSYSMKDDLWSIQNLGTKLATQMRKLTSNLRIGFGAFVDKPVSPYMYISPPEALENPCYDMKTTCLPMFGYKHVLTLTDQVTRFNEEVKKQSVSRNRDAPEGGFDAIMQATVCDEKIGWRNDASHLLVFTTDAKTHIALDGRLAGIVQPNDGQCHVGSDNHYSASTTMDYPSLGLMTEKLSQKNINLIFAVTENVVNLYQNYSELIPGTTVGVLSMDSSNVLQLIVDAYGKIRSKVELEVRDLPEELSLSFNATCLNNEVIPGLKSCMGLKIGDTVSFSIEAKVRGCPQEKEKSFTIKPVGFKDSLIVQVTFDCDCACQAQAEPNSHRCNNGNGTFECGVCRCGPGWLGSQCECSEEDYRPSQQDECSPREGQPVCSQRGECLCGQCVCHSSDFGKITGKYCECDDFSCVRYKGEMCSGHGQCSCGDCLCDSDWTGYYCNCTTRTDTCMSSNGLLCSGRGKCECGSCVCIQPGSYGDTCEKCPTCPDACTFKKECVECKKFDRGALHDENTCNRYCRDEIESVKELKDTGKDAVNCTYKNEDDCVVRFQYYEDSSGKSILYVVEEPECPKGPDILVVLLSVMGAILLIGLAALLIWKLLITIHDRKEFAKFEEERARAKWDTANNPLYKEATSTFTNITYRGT
Sequence of 293 cells cotransfected with αv and β3 subunits of the vitronectin receptor αvβ3 (P06756 whole entry): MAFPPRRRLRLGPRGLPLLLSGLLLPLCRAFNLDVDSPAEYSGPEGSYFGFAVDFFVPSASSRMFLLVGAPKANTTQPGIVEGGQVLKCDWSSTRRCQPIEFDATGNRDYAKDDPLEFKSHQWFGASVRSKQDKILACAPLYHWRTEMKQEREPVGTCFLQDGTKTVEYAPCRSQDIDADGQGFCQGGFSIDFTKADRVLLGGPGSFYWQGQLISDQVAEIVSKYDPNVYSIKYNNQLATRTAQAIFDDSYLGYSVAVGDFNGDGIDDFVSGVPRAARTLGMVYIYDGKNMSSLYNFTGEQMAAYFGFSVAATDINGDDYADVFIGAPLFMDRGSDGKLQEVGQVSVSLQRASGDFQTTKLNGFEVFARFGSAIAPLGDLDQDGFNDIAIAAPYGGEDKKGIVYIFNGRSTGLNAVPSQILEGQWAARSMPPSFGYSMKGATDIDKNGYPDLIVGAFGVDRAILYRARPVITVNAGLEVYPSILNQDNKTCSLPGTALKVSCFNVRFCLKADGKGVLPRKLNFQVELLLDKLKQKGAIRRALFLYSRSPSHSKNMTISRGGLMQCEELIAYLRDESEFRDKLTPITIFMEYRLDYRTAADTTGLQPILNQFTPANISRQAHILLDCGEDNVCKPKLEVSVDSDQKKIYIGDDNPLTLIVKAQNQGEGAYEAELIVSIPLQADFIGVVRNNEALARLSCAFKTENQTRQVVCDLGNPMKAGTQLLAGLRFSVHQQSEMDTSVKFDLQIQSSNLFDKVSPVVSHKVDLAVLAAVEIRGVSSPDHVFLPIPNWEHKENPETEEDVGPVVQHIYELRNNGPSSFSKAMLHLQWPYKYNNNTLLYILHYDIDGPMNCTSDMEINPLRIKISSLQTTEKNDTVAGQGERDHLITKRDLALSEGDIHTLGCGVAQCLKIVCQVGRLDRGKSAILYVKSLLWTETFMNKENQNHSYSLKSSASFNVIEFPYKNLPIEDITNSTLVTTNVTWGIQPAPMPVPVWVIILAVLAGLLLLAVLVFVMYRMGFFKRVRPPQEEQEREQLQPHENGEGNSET
T1 sequence (P06756 31-889 limits assumed): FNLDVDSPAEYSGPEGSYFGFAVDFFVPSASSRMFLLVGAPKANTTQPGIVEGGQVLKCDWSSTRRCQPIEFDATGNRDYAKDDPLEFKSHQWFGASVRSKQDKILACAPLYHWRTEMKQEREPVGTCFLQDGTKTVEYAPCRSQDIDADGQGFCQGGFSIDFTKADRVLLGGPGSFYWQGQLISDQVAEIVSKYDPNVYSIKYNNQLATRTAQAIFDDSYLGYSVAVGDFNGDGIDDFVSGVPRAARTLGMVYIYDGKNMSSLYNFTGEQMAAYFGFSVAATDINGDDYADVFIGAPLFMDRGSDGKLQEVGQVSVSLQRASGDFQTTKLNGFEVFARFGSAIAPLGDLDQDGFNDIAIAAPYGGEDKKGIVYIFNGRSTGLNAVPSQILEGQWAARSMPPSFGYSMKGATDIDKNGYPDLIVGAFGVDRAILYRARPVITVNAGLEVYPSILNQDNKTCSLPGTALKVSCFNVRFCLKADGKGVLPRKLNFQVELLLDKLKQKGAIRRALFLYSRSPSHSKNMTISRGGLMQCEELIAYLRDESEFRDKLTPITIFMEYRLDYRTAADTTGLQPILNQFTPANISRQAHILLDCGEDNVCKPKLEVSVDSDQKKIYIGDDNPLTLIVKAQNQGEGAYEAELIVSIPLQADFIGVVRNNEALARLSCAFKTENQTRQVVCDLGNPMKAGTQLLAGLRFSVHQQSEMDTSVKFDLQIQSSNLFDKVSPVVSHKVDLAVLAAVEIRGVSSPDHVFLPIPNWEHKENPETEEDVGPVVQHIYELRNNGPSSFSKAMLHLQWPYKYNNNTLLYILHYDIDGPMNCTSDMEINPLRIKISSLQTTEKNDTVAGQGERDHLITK
T1 sequence (P06756 891-1048 partner limits assumed): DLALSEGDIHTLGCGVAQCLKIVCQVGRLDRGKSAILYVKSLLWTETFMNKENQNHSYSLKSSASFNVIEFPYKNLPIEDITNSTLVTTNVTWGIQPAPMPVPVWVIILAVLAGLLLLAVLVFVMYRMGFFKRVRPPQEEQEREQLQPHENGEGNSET
T1 sequence (P05106 27-788): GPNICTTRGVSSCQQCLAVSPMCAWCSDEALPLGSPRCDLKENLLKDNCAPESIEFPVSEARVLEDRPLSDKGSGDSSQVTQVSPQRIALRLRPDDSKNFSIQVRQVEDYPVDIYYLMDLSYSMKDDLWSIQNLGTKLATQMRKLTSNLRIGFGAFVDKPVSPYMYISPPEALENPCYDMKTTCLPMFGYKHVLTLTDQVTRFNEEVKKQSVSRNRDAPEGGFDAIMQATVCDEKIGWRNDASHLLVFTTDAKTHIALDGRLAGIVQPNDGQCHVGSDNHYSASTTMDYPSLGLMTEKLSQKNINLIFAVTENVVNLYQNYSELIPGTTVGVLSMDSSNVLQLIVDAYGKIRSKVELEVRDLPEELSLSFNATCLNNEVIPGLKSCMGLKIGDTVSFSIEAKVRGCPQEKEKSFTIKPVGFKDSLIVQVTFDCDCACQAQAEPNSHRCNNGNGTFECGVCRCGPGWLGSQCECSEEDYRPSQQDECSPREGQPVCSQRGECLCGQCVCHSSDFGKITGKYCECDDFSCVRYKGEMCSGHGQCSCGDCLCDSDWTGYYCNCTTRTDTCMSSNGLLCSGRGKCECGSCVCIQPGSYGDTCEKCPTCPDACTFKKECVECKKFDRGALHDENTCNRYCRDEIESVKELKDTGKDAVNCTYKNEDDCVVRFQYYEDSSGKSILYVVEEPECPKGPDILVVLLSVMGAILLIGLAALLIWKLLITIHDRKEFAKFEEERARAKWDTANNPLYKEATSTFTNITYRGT

Turning to `O=C(N[C@@H](Cn1cnc2c(N3CCC(c4ccc5c(n4)NCCC5)CC3)ncnc21)C(=O)O)OCc1ccccc1` [Example 1, (2S)-2-Benzyloxycarbonylamino-3-(6-(4-(5,6,7,8-tetrahydro-[1,8]naphthyridin-2-yl)-piperidin-1-yl)-purin-9-yl)-propionic acid], the figures for the IC50 in experiment [1] and in experiment [2] were 78 nM and 10 nM, respectively.
The corresponding values for `O=C(O)[C@H](Cn1cnc2c(N3CCC(c4ccc5c(n4)NCCC5)CC3)ncnc21)NS(=O)(=O)c1ccccc1` [Example 2, (2S)-2-Benzenesulfonylamino-3-(6-(4-(5,6,7,8-tetrahydro-[1,8]naphthyridin-2-yl)-piperidin-1-yl)-purin-9-yl)-propionic acid] are 23 nM and 4.8 nM.
`O=C(O)[C@H](Cn1cnc2c(N3CCC(c4ccc5c(n4)NCCC5)CC3)ncnc21)NS(=O)(=O)c1ccc(Cl)cc1` [Example 3, (2S)-2-(4-Chlorobenzenesulfonylamino)-3-(6-(4-(5,6,7,8-tetrahydro-[1,8]naphthyridin-2-yl)-piperidin-1-yl)-purin-9-yl)-propionic acid]: the IC50 in experiment [1] came out at 15 nM; in experiment [2], 5.1 nM; in experiment [3] it was 0.3 nM.
Consider `O=C(O)[C@H](Cn1cnc2c(N3CCC(c4ccc5c(n4)NCCC5)CC3)ncnc21)NS(=O)(=O)c1cccc2ccccc12` [Example 4, (2S)-2-(Naphthalene-1-sulfonylamino)-3-(6-(4-(5,6,7,8-tetrahydro-[1,8]naphthyridin-2-yl)-piperidin-1-yl)-purin-9-yl)-propionic acid], for which the results for the IC50 in experiment [1], in experiment [2] and in experiment [3] were 24 nM, 6.4 nM and less than 10 nM, respectively.
On to `O=C(O)[C@H](Cn1cnc2c(N3CCC(c4ccc5c(n4)NCCC5)CC3)ncnc21)NS(=O)(=O)c1ccc(C(F)(F)F)cc1` [Example 5, (2S)-3-(6-(4-(5,6,7,8-Tetrahydro-[1,8]naphthyridin-2-yl)-piperidin-1-yl)-purin-9-yl)-2-(4-trifluoromethylbenzenesulfonylamino)-propionic acid], for which the IC50 was determined as 22 nM in experiment [1] and 5 nM in experiment [2].
Turning to `CCCCS(=O)(=O)N[C@@H](Cn1cnc2c(N3CCC(c4ccc5c(n4)NCCC5)CC3)ncnc21)C(=O)O` [Example 6, (2S)-2-(Butane-1-sulfonylamino)-3-(6-(4-(5,6,7,8-tetrahydro-[1,8]naphthyridin-2-yl)-piperidin-1-yl)-purin-9-yl)-propionic acid], the IC50 in experiment [1] was 115 nM; in experiment [2], 18 nM.

Values taken from patent US6743800B1, “Naphthyridine derivatives, processes for their preparation, their use and pharmaceutical compositions comprising them” (Aventis Pharma Deutschland GmbH, priority 1999, dated 2004).
